According to patent US10081632B2, “Substituted tetrahydropyrido[3′,2′:4,5]pyrrolo[1,2-α]pyrazine-2-carboxamides as RSK inhibitors” (Phoenix Molecular Designs, priority 2016, dated 2018):

How the values were obtained:
4T1 cells [1] = test: Monolayer growth inhibition, Alamar blue assay; assay type: cell-based; details: Mus musculus, 4T1, 4T1 (TNBC), 5 days, single dose on day 1
Text: (§1) In all instances a single dose was given on day 1 of the experiment.

HCC1937 cells = test: Monolayer growth inhibition, Alamar blue assay; assay type: cell-based; details: Homo sapiens, HCC1937, HCC1937 (TNBC, BRCA Mutant), 5 days, single dose on day 1
Text: as §1

JIMT-1 cells = test: Monolayer growth inhibition, Alamar blue assay; assay type: cell-based; details: Homo sapiens, JIMT-1, JIMT-1 (HER2), 5 days, single dose on day 1
Text: as §1

PC3 cells = test: Monolayer growth inhibition, Alamar blue assay; assay type: cell-based; details: Homo sapiens, PC-3; PC3 (Prostate), 5 days, single dose on day 1
Text: as §1

SUM149-PTXR cells = test: Monolayer growth inhibition, Alamar blue assay; assay type: cell-based, Human; details: SUM149-PTXR (TNBC, BRCA Mutant), 5 days, single dose on day 1
Text: as §1

T47D cells = test: Monolayer growth inhibition, Alamar blue assay; assay type: cell-based, Human; details: T47D (ER/PR), 5 days, single dose on day 1
Text: as §1

4T1 cells [2] = test: Monolayer growth inhibition, crystal violet assay; assay type: cell-based; details: Mus musculus, 4T1, 4T1 (TNBC), 5 days, single dose on day 1
Text: as §1

SUM149 cells = test: Monolayer growth inhibition, crystal violet assay; assay type: cell-based; details: Homo sapiens, SUM149, SUM149 (TNBC, BRCA Mutant), 5 days, single dose on day 1
Text: as §1

MDA-MB-231 cells = test: Soft agar growth inhibition assay; assay type: cell-based; details: Homo sapiens, MDA-MB-231; growth in soft agar (SA); read-out: MDA-MB-231 IC50 (SA)

Compound: C[C@@H]1CNC(=O)c2cc3ccc(C(=O)Nc4cnn(Cc5ccc(N)cc5)c4)nc3n21 [Compound 18, (R)—N-(1-(4-aminobenzyl)-1H-pyrazol-4-yl)-9-methyl-6-oxo-6,7,8,9-tetrahydropyrido[3′,2′:4,5]pyrrolo[1,2-a]pyrazine-2-carboxamide]
- IC50 (4T1 cells [1]): 5.3 ± 2.5 µM
- IC50 (HCC1937 cells): 9.2 ± 1.1 µM
- IC50 (JIMT-1 cells): 13.1 ± 6.4 µM
- IC50 (PC3 cells): 5.5 ± 0.5 µM
- IC50 (SUM149-PTXR cells): 2.1 ± 0.3 µM
- IC50 (T47D cells): 3.6 ± 1.7 µM
- IC50 (4T1 cells [2]): 5.3 ± 1.1 µM
- IC50 (SUM149 cells): 2.4 ± 0.7 µM
- IC50 (MDA-MB-231 cells): 0.1 µM
